Test results as given in patent US12569454B2, “Nucleophilic chemicals useful in the treatment of cisplatin-induced sensory neuropathy and ototoxicity” (MONTEFIORE MEDICAL CENTER, priority 2018, dated 2026).

What was measured:
[1] = system: freshly isolated mouse hepatocytes; assay: CisPt effect on cell viability with or without protectant; type: cell-based; settings: co-administration with CisPt, FIG. 3B
Description: (§1) The enol compounds investigated in this study were gavinol, NAHA, and THA and as a point of comparison, the protective properties of thiol-based compounds, N-acetyl-L-cysteine (NAC) and sodium thiosulfate (STS), were also investigated.

[2] = system: neonatal rat DRG cells; assay: as above; type: cell-based; settings: co-administration with CisPt, FIG. 3A
Description: as §1

[3] = system: osteosarcoma (HOS); assay: CisPt-induced cancer cell lethality; type: cell-based; settings: for effect on ability of CisPt to kill cancer cells (IC75): co-incubated with graded CisPt, FIG. 5C
[4] = system: glioblastoma (U87 MG); assay: CisPt-induced cancer cell lethality; type: cell-based
[5] = system: neuroblastoma (SH-SY5); assay: CisPt-induced cancer cell lethality; type: cell-based
[6] = system: mouse; assay: Mouse studies: open field, balance beam, functional observational battery, treadmill; type: in vivo; settings: open field observations, treadmill analysis
[7] = pKa of nucleophilic carbon atoms; type: physicochemical
[8] = system: DRG cells; assay: Lethality of pre-formed enol-Pt complexes and Pt drugs; settings: 4 hours exposure
Description: (§2) DRG cells and isolated mouse hepatocytes were then exposed to enol-Pt complexes for 4 hours and the respective changes in lethality were determined.

[9] = system: isolated mouse hepatocytes; assay: as above; settings: 4 hours exposure
Description: as §2

[10] = acute animal toxicity; cited from earlier work
[11] = 400-600 mg/kg per day for 60 days; cited from earlier work
[12] = complexes pre-incubated 30 mins

SMILES: O=S([O-])([O-])=S.[Na+].[Na+] [STS, sodium thiosulfate, reference compound]
- protection against CisPt toxicity [1]: only modest protection
- protection against CisPt toxicity [2]: only modest protection
- effect on ability of CisPt to kill cancer cells (IC75) [3]: did not modify CisPt-induced cancer cell toxicity
- effect on ability of CisPt to kill cancer cells (IC75) ([4]; co-incubated with graded CisPt, FIG. 5B): did not modify CisPt-induced cancer cell toxicity
- effect on ability of CisPt to kill cancer cells (IC75) ([5]; co-incubated with graded CisPt, FIG. 5A): did not modify CisPt-induced cancer cell toxicity

SMILES: CC(=O)Nc1cc(O)c(C(C)=O)c(O)c1 [NAHA, 4-N-acetyl-2,6-dihydroxyacetaphenone]
- protection against CisPt toxicity [1]: substantial cryoprotection
- protection against CisPt toxicity [2]: substantial cryoprotection
- effect on ability of CisPt to kill cancer cells (IC75) [3]: significantly lowered the respective IC75S
- toxicity in mouse studies [6]: not toxic
- pKa [7]: 7.9

SMILES: CC(=O)N[C@@H](CS)C(=O)O [NAC, N-acetyl-L-cysteine, reference compound]
- protection against CisPt toxicity [1]: only modest protection
- protection against CisPt toxicity [2]: only modest protection

SMILES: N.N.O=C([O-])C1(C(=O)[O-])CCC1.[Pt+2] [CarboPt, carboplatin]
- cancer cell lethality ([3]; FIG. 6B, compared with CisPt): reduced cancer cell lethality
- cytotoxicity relative to that caused by CisPt or OxaliPt [8]: intermediate cytotoxicity
- cytotoxicity (lethality) [8, 12]: substantial concentration-dependent DRG and hepatocyte lethality
- cytotoxicity relative to that caused by CisPt or OxaliPt [9]: intermediate cytotoxicity
- cytotoxicity (lethality) [9, 12]: substantial concentration-dependent DRG and hepatocyte lethality
- cancer cell lethality ([4]; FIG. 6A, compared with CisPt): reduced cancer cell lethality
- cancer cell lethality ([5]; FIG. 6C, compared with CisPt): reduced cancer cell lethality

SMILES: CC(=O)C1CCCC1=O (centres unmarked) [2-ACP, 2-acetylcyclopentanone]
- toxicity in mouse studies [6]: not toxic
- LD50 [10]: > 800 mg/kg
- systemic toxicity [11]: low incidence of systemic toxicity

SMILES: CC(=O)c1c(O)cc(NC(=O)C2CCCC2=O)cc1O (centres unmarked) [gavinol, N-(4-acetyl-3,5-dihydroxyphenyl)-2-oxocyclopentane-1-carboxamide]
- protection against CisPt toxicity [1]: substantial cryoprotection
- protection against CisPt toxicity [2]: substantial cryoprotection
- effect on ability of CisPt to kill cancer cells (IC75) [3]: significantly lowered the respective IC75S
- toxicity in mouse studies [6]: not toxic

SMILES: CC(=O)c1c(O)cc(O)cc1O [THA, 2′,4′,6′-trihydroxyacetophenone]
- protection against CisPt toxicity [1]: substantial cryoprotection
- protection against CisPt toxicity [2]: substantial cryoprotection
- toxicity in mouse studies [6]: not toxic
